Settings: Hot wire method

F/C=C/C(F)(F)F [trans-1,3,3,3-tetrafluoropropene]
Settings	thermal conductivity [W/m/K]
281.63 K, 15232 kPa, Liquid	0.08862
281.67 K, 23307 kPa, Liquid	0.09249
281.68 K, 20203 kPa, Liquid	0.09077
281.7 K, 445 kPa, Liquid	0.08035
281.71 K, 5379 kPa, Liquid	0.08327
281.72 K, 15226 kPa, Liquid	0.08837
281.76 K, 10284 kPa, Liquid	0.08598
281.8 K, 5372 kPa, Liquid	0.08315
281.82 K, 242 kPa, Gas	0.01258
281.84 K, 200 kPa, Gas	0.01237
281.86 K, 99 kPa, Gas	0.01213
281.86 K, 141 kPa, Gas	0.01223
282.04 K, 23299 kPa, Liquid	0.09237
282.06 K, 242 kPa, Gas	0.01258
282.06 K, 20222 kPa, Liquid	0.09082
282.07 K, 438 kPa, Liquid	0.07934
282.1 K, 200 kPa, Gas	0.01234
282.13 K, 98 kPa, Gas	0.01208
282.13 K, 140 kPa, Gas	0.01217
282.14 K, 434 kPa, Liquid	0.07983
282.14 K, 10286 kPa, Liquid	0.08591
282.15 K, 23304 kPa, Liquid	0.09213
282.17 K, 20224 kPa, Liquid	0.09064
282.2 K, 5363 kPa, Liquid	0.08314
282.21 K, 15223 kPa, Liquid	0.08817
282.28 K, 10288 kPa, Liquid	0.08566
282.31 K, 242 kPa, Gas	0.01258
282.32 K, 5352 kPa, Liquid	0.08296
282.36 K, 200 kPa, Gas	0.0123
282.4 K, 138 kPa, Gas	0.01213
282.52 K, 245 kPa, Gas	0.01231
282.54 K, 431 kPa, Liquid	0.07937
282.54 K, 23312 kPa, Liquid	0.09188
282.58 K, 200 kPa, Gas	0.01226
282.58 K, 20215 kPa, Liquid	0.09057
282.63 K, 428 kPa, Liquid	0.07955
282.64 K, 15228 kPa, Liquid	0.08812
282.67 K, 145 kPa, Gas	0.01228
282.69 K, 23303 kPa, Liquid	0.09187
282.7 K, 10287 kPa, Liquid	0.0852
282.73 K, 20227 kPa, Liquid	0.09025
282.76 K, 103 kPa, Gas	0.01237
282.77 K, 5352 kPa, Liquid	0.08245
282.79 K, 15232 kPa, Liquid	0.0878
282.86 K, 10284 kPa, Liquid	0.08516
282.9 K, 243 kPa, Gas	0.01231
282.94 K, 5351 kPa, Liquid	0.08227
282.95 K, 199 kPa, Gas	0.01234
283.04 K, 425 kPa, Liquid	0.07934
283.07 K, 143 kPa, Gas	0.01233
283.13 K, 23323 kPa, Liquid	0.0916
283.15 K, 424 kPa, Liquid	0.0789
283.17 K, 20222 kPa, Liquid	0.08992
283.19 K, 101 kPa, Gas	0.01241
283.23 K, 15235 kPa, Liquid	0.08758
283.26 K, 280 kPa, Gas	0.01243
283.3 K, 242 kPa, Gas	0.01229
283.33 K, 10277 kPa, Liquid	0.08464
283.35 K, 20230 kPa, Liquid	0.08937
283.37 K, 199 kPa, Gas	0.01232
283.41 K, 5347 kPa, Liquid	0.08183
283.44 K, 15228 kPa, Liquid	0.08686
283.5 K, 142 kPa, Gas	0.01236
283.52 K, 10279 kPa, Liquid	0.08429
283.62 K, 5351 kPa, Liquid	0.08173
283.63 K, 100 kPa, Gas	0.01246
283.64 K, 280 kPa, Gas	0.0125
283.73 K, 242 kPa, Gas	0.01238
283.81 K, 200 kPa, Gas	0.01236
283.96 K, 140 kPa, Gas	0.01236
284.06 K, 280 kPa, Gas	0.01255
284.11 K, 98 kPa, Gas	0.01249
284.18 K, 242 kPa, Gas	0.01239
284.26 K, 200 kPa, Gas	0.01238
284.45 K, 139 kPa, Gas	0.01242
284.62 K, 97 kPa, Gas	0.0125
291.03 K, 97 kPa, Gas	0.01317
291.05 K, 154 kPa, Gas	0.0132
291.06 K, 237 kPa, Gas	0.01331
291.26 K, 96 kPa, Gas	0.013
291.28 K, 154 kPa, Gas	0.01305
291.28 K, 236 kPa, Gas	0.01323
291.51 K, 234 kPa, Gas	0.01316
291.52 K, 95 kPa, Gas	0.01287
291.52 K, 155 kPa, Gas	0.01297
291.76 K, 232 kPa, Gas	0.01312
291.79 K, 95 kPa, Gas	0.01281
291.79 K, 155 kPa, Gas	0.01291
292.02 K, 231 kPa, Gas	0.01307
292.06 K, 94 kPa, Gas	0.01276
292.06 K, 155 kPa, Gas	0.01287
292.13 K, 314 kPa, Gas	0.01299
292.21 K, 238 kPa, Gas	0.01305
292.32 K, 154 kPa, Gas	0.01313
292.44 K, 97 kPa, Gas	0.01319
292.5 K, 311 kPa, Gas	0.01305
292.51 K, 336 kPa, Gas	0.0131
292.59 K, 236 kPa, Gas	0.01303
292.72 K, 154 kPa, Gas	0.01308
292.85 K, 96 kPa, Gas	0.01324
292.88 K, 308 kPa, Gas	0.01303
292.89 K, 333 kPa, Gas	0.01312
292.98 K, 235 kPa, Gas	0.01313
293.14 K, 154 kPa, Gas	0.01304
293.29 K, 330 kPa, Gas	0.01314
293.3 K, 95 kPa, Gas	0.01322
293.3 K, 306 kPa, Gas	0.0131
293.32 K, 349 kPa, Gas	0.01317
293.41 K, 233 kPa, Gas	0.01314
293.54 K, 400 kPa, Gas	0.01316
293.58 K, 155 kPa, Gas	0.01322
293.68 K, 347 kPa, Gas	0.01318
293.72 K, 327 kPa, Gas	0.01313

Liquid
Settings	thermal conductivity [W/m/K]
283.15 K	0.07962
293.15 K	0.07611

From the NIST ThermoML archive (doi:10.1021/je200811n)
